In patent US12655116B2, “Substituted isophthalic acid diamides” (Bayer Aktiengesellschaft, priority 2020, dated 2026):

How the values were obtained:
ALOMY [1] = assay: Post-emergence herbicidal action against ALOMY; assay type: in vivo, Alopecurus myosuroides; settings: dosage 20 g/ha, visual assessment about 3 weeks after treatment vs untreated controls
Outline: (§1)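 Greenhouse plants in sandy loam were sprayed at the one-leaf stage, 2 to 3 weeks after sowing, with WP or EC formulations as aqueous suspension or emulsion (600 to 800 l/ha water, 0.2% wetting agent). Visual damage was scored about 3 weeks later versus untreated controls, 0% = like control, 100% = dead.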

VERPE [2] = assay: Pre-emergence herbicidal action against VERPE; assay type: in vivo, Veronica persica; settings: dosage 80 g/ha
Outline: (§2)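 Pre-emergence soil-surface spray of formulated compound (WP or EC; 600 to 800 l/ha; 0.2% wetting agent) over seeds sown in sandy loam. After 3 weeks under greenhouse conditions, damage is estimated visually in percent against untreated plants.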

VIOTR [3] = assay: Pre-emergence herbicidal action against VIOTR; assay type: in vivo, Viola tricolor
Outline: as §2

ECHCG [4] = assay: Post-emergence herbicidal action against ECHCG; assay type: in vivo, Echinochloa crus-galli
Outline: as §1

ECHCG [5] = assay: Pre-emergence herbicidal action against ECHCG; assay type: in vivo, Echinochloa crus-galli; settings: 80 g/ha
Outline: as §2

DIGSA [6] = assay: Post-emergence herbicidal action against DIGSA; assay type: in vivo, Digitaria sanguinalis; settings: for Post-emergence action against DIGSA in %: 5 g/ha; for Post-emergence action against DIGSA: 20 g/ha
Outline: as §1

SETVI [7] = assay: Post-emergence herbicidal action against SETVI; assay type: in vivo, Setaria viridis
Outline: as §1

HORMU [8] = assay: Pre-emergence herbicidal action against HORMU; assay type: in vivo, Hordeum murinum; settings: 80 g/ha, pre-emergence
Outline: as §2

STEME [9] = assay: Pre-emergence herbicidal action against STEME; assay type: in vivo, Stellaria media
Outline: as §2

MATIN [10] = assay: Pre-emergence herbicidal action against MATIN; assay type: in vivo, Matricaria inodora
Outline: as §2

DIGSA [11] = assay: Pre-emergence herbicidal action against DIGSA; assay type: in vivo, Digitaria sanguinalis
Outline: as §2

STEME [12] = assay: Post-emergence herbicidal action against STEME; assay type: in vivo, Stellaria media
Outline: as §1

PHBPU [13] = assay: Post-emergence herbicidal action against PHBPU; assay type: in vivo, Pharbitis purpurea
Outline: as §1

VERPE [14] = assay: Post-emergence herbicidal action against VERPE; assay type: in vivo, Veronica persica; settings: 20 g/ha
Outline: as §1

ABUTH [15] = assay: Pre-emergence herbicidal action against ABUTH; assay type: in vivo, Abutilon theophrasti; settings: for Pre-emergence action against ABUTH (herbicidal activity): 80 g/ha, scored visually after 3 weeks vs untreated controls (100% = plants have died, 0% = like control plants); for Pre-emergence action against ABUTH (herbicidal activity in percent): dosage 20 g/ha, scored visually after 3 weeks vs untreated controls, 100% = plants have died, 0% = like control plants
Outline: as §2

PHBPU [16] = assay: Pre-emergence herbicidal action against PHBPU; assay type: in vivo, Pharbitis purpurea; settings: dosage 80 g/ha
Outline: as §2

HORMU [17] = assay: Post-emergence herbicidal action against HORMU; assay type: in vivo, Hordeum murinum; settings: dosage 20 g/ha
Outline: as §1

MATIN [18] = assay: Post-emergence herbicidal action against MATIN; assay type: in vivo, Matricaria inodora
Outline: as §1

AMARE [19] = assay: Pre-emergence herbicidal action against AMARE; assay type: in vivo, Amaranthus retroflexus
Outline: as §2

ALOMY [20] = assay: Pre-emergence herbicidal action against ALOMY; assay type: in vivo, Alopecurus myosuroides; settings: 80 g/ha, pre-emergence, scored visually after 3 weeks vs untreated controls (100% = plants have died, 0% = like control plants)
Outline: as §2

VIOTR [21] = assay: Post-emergence herbicidal action against VIOTR; assay type: in vivo, Viola tricolor
Outline: as §1

POLCO = assay: Pre-emergence herbicidal action against POLCO; assay type: in vivo, Polygonum convolvulus
Outline: as §2

AVEFA [22] = assay: Pre-emergence herbicidal action against AVEFA; assay type: in vivo, Avena fatua; settings: 80 g/ha, pre-emergence
Outline: as §2

LOLRI = assay: Pre-emergence herbicidal action against LOLRI; assay type: in vivo, Lolium rigidum; settings: 80 g/ha
Outline: as §2

SETVI [23] = assay: Pre-emergence herbicidal action against SETVI; assay type: in vivo, Setaria viridis
Outline: as §2

AVEFA [24] = assay: Post-emergence herbicidal action against AVEFA; assay type: in vivo, Avena fatua; settings: 20 g/ha, visual assessment about 3 weeks after treatment, 100% = plants have died, 0% = like control plants
Outline: as §1

ABUTH [25] = assay: Post-emergence herbicidal action against ABUTH; assay type: in vivo, Abutilon theophrasti; settings: visual assessment about 3 weeks after treatment vs untreated controls
Outline: as §1

AMARE [26] = assay: Post-emergence herbicidal action against AMARE; assay type: in vivo, Amaranthus retroflexus; settings: 20 g/ha, visual assessment about 3 weeks after treatment, 100% = plants have died, 0% = like control plants
Outline: as §1

[27] = 20 g/ha, scored visually after 3 weeks vs untreated controls, 100% = plants have died, 0% = like control plants
[28] = 80 g/ha, scored visually after 3 weeks vs untreated controls (100% = plants have died, 0% = like control plants)

## CCn1nnnc1NC(=O)c1ccc(C(F)(F)F)c(C(=O)NC)c1C [Example 2-25]
ALOMY [1]
  Post-emergence action against ALOMY in %: 90%
VERPE [2]
  Pre-emergence action against VERPE in %: 100%
VIOTR [3]; dosage 80 g/ha
  Pre-emergence action against VIOTR in %: 100%
ECHCG [4]; dosage 20 g/ha
  Post-emergence action against ECHCG in %: 80%
ECHCG [5]
  Pre-emergence action against ECHCG in %: 100%
DIGSA [6]
  Post-emergence action against DIGSA in %: 80%
  Post-emergence action against DIGSA: 90%
SETVI [7]; dosage 20 g/ha
  Post-emergence action against SETVI in %: 80%
HORMU [8]
  Pre-emergence action against HORMU in %: 90%
STEME [9]; dosage 20 g/ha
  Pre-emergence action against STEME in %: 90%
STEME [9]; dosage 80 g/ha
  Pre-emergence action against STEME in %: 100%
MATIN [10]; dosage 20 g/ha
  Pre-emergence action against MATIN in %: 100%
MATIN [10]; dosage 80 g/ha
  Pre-emergence action against MATIN in %: 100%
DIGSA [11]; dosage 20 g/ha
  Pre-emergence action against DIGSA in %: 100%
DIGSA [11]; dosage 80 g/ha
  Pre-emergence action against DIGSA in %: 100%
STEME [12]; 20 g/ha
  Post-emergence action against STEME in %: 100%
STEME [12]; dosage 5 g/ha
  Post-emergence action against STEME in %: 90%
PHBPU [13]; dosage 5 g/ha
  Post-emergence action against PHBPU in %: 80%
PHBPU [13]; dosage 20 g/ha
  Post-emergence action against PHBPU in %: 90%
VERPE [14]
  Post-emergence action against VERPE in %: 90%
ABUTH [15]
  Pre-emergence action against ABUTH (herbicidal activity): 100%
  Pre-emergence action against ABUTH (herbicidal activity in percent): 100%
PHBPU [16]
  Pre-emergence action against PHBPU in %: 80%
HORMU [17]
  Post-emergence action against HORMU in %: 80%
MATIN [18]; dosage 5 g/ha
  Post-emergence action against MATIN in %: 90%
MATIN [18]; dosage 20 g/ha
  Post-emergence action against MATIN in %: 100%
AMARE [19]; [27]
  Pre-emergence action against AMARE in %: 100%
AMARE [19]; [28]
  Pre-emergence action against AMARE in %: 100%
ALOMY [20]
  Pre-emergence action against ALOMY (herbicidal activity): 90%
VIOTR [21]; 5 g/ha
  Post-emergence action against VIOTR in %: 80%
VIOTR [21]; 20 g/ha
  Post-emergence action against VIOTR in %: 90%
POLCO; dosage 20 g/ha
  Pre-emergence action against POLCO in %: 100%
POLCO; dosage 80 g/ha
  Pre-emergence action against POLCO in %: 100%
AVEFA [22]
  Pre-emergence action against AVEFA in %: 100%
LOLRI
  Pre-emergence action against LOLRI in %: 80%
SETVI [23]; dosage 20 g/ha
  Pre-emergence action against SETVI in %: 100%
SETVI [23]; dosage 80 g/ha
  Pre-emergence action against SETVI in %: 100%
AVEFA [24]
  Post-emergence action at 20 g/ha against AVEFA in %: 100%
ABUTH [25]; dosage 5 g/ha
  Post-emergence action against ABUTH in %: 100%
ABUTH [25]; dosage 20 g/ha
  Post-emergence action against ABUTH in %: 100%

## CCNC(=O)c1c(C(F)F)ccc(C(=O)Nc2nnnn2CC)c1SC [Example 2-88]
ALOMY [1]
  Post-emergence action against ALOMY in %: 80%
VERPE [2]
  Pre-emergence action against VERPE in %: 100%
VIOTR [3]; dosage 20 g/ha
  Pre-emergence action against VIOTR in %: 100%
VIOTR [3]; dosage 80 g/ha
  Pre-emergence action against VIOTR in %: 100%
ECHCG [4]; dosage 5 g/ha
  Post-emergence action against ECHCG in %: 80%
ECHCG [4]; dosage 20 g/ha
  Post-emergence action against ECHCG in %: 80%
ECHCG [5]
  Pre-emergence action against ECHCG in %: 100%
DIGSA [6]
  Post-emergence action against DIGSA in %: 90%
  Post-emergence action against DIGSA: 90%
SETVI [7]; dosage 5 g/ha
  Post-emergence action against SETVI in %: 90%
SETVI [7]; dosage 20 g/ha
  Post-emergence action against SETVI in %: 100%
HORMU [8]
  Pre-emergence action against HORMU in %: 80%
STEME [9]; dosage 20 g/ha
  Pre-emergence action against STEME in %: 100%
STEME [9]; dosage 80 g/ha
  Pre-emergence action against STEME in %: 100%
MATIN [10]; dosage 20 g/ha
  Pre-emergence action against MATIN in %: 100%
MATIN [10]; dosage 80 g/ha
  Pre-emergence action against MATIN in %: 100%
DIGSA [11]; dosage 20 g/ha
  Pre-emergence action against DIGSA in %: 100%
DIGSA [11]; dosage 80 g/ha
  Pre-emergence action against DIGSA in %: 100%
STEME [12]; 20 g/ha
  Post-emergence action against STEME in %: 100%
STEME [12]; dosage 5 g/ha
  Post-emergence action against STEME in %: 90%
PHBPU [13]; dosage 5 g/ha
  Post-emergence action against PHBPU in %: 80%
PHBPU [13]; dosage 20 g/ha
  Post-emergence action against PHBPU in %: 90%
VERPE [14]
  Post-emergence action against VERPE in %: 80%
ABUTH [15]
  Pre-emergence action against ABUTH (herbicidal activity): 100%
  Pre-emergence action against ABUTH (herbicidal activity in percent): 100%
PHBPU [16]
  Pre-emergence action against PHBPU in %: 90%
HORMU [17]
  Post-emergence action against HORMU in %: 80%
MATIN [18]; dosage 20 g/ha
  Post-emergence action against MATIN in %: 80%
AMARE [19]; [27]
  Pre-emergence action against AMARE in %: 100%
AMARE [19]; [28]
  Pre-emergence action against AMARE in %: 100%
AMARE [26]
  Post-emergence action at 20 g/ha against AMARE in %: 90%
ALOMY [20]
  Pre-emergence action against ALOMY (herbicidal activity): 90%
VIOTR [21]; 5 g/ha
  Post-emergence action against VIOTR in %: 80%
VIOTR [21]; 20 g/ha
  Post-emergence action against VIOTR in %: 90%
POLCO; dosage 80 g/ha
  Pre-emergence action against POLCO in %: 90%
AVEFA [22]
  Pre-emergence action against AVEFA in %: 90%
LOLRI
  Pre-emergence action against LOLRI in %: 80%
SETVI [23]; dosage 80 g/ha
  Pre-emergence action against SETVI in %: 100%
AVEFA [24]
  Post-emergence action at 20 g/ha against AVEFA in %: 80%
ABUTH [25]; dosage 5 g/ha
  Post-emergence action against ABUTH in %: 90%
ABUTH [25]; dosage 20 g/ha
  Post-emergence action against ABUTH in %: 90%
